Results published in article PMC5789640, “Depletion of Arabidopsis ACYL-COA-BINDING PROTEIN3 Affects Fatty Acid Composition in the Phloem” (Frontiers in Plant Science, 2018).

Each molecule was assayed against T1, (His)6-AtACBP3 (Arabidopsis thaliana, UniProt Q9STX1) (assay: isothermal titration calorimetry).
T1 construct: gene ACBP3; plasmid pAT223, E. coli BL21(DE3) pLysS
T1 sequence (Q9STX1 23-362): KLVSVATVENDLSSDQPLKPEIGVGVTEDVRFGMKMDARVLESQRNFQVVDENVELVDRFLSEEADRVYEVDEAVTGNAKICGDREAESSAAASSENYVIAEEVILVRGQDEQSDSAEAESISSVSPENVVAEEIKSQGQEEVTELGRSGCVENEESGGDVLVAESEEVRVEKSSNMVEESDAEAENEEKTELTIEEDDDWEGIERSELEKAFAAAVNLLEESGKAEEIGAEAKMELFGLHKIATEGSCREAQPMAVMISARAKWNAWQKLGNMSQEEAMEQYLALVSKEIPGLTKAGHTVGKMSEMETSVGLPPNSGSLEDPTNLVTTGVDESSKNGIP
Format: binding
From the text: isothermal titration calorimetry on (His)6-AtACBP3

SMILES | Kd [µM]
CCCCC/C=C\C/C=C\CCCCCCCC(=O)SCCNC(=O)CCNC(=O)[C@H](O)C(C)(C)COP(=O)(O)OP(=O)(O)OC[C@H]1O[C@@H](n2cnc3c(N)ncnc32)[C@H](O)[C@@H]1OP(=O)(O)O [C18:2-CoA ester] | 13.4 ± 1.4
CCCCCC/C=C\CCCCCCCC(=O)SCCNC(=O)CCNC(=O)[C@H](O)C(C)(C)COP(=O)(O)OP(=O)(O)OC[C@H]1O[C@@H](n2cnc3c(N)ncnc32)[C@H](O)[C@@H]1OP(=O)(O)O [C16:1-CoA ester] | 5.1 ± 1.9
CC/C=C\C/C=C\C/C=C\CCCCCCCC(=O)SCCNC(=O)CCNC(=O)[C@H](O)C(C)(C)COP(=O)(O)OP(=O)(O)OC[C@H]1O[C@@H](n2cnc3c(N)ncnc32)[C@H](O)[C@@H]1OP(=O)(O)O [C18:3-CoA ester] | 8.6 ± 2

Further lines, results first:

Kd [µM] | SMILES
33.1 ± 13 | CCCCCCCCCCCC(=O)SCCNC(=O)CCNC(=O)[C@H](O)C(C)(C)COP(=O)(O)OP(=O)(O)OC[C@H]1O[C@@H](n2cnc3c(N)ncnc32)[C@H](O)[C@@H]1OP(=O)(O)O [C12:0-CoA ester]
4 ± 0.6 | CCCCCCCCCCCCCC(=O)SCCNC(=O)CCNC(=O)[C@H](O)C(C)(C)COP(=O)(O)OP(=O)(O)OC[C@H]1O[C@@H](n2cnc3c(N)ncnc32)[C@H](O)[C@@H]1OP(=O)(O)O [C14:0-CoA ester]
21 ± 4.7 | CCCCCCCCCCCCCCCCC(=O)SCCNC(=O)CCNC(=O)[C@H](O)C(C)(C)COP(=O)(O)OP(=O)(O)OC[C@H]1O[C@@H](n2cnc3c(N)ncnc32)[C@H](O)[C@@H]1OP(=O)(O)O [C17:0-CoA ester]
